Measured values from PMC8467962, “Design and Synthesis of Water-Soluble and Potent MMP-13 Inhibitors with Activity in Human Osteosarcoma Cells” (International Journal of Molecular Sciences, 2021).
In brackets after ≈: the same amount, converted by molar mass. Where two headings read alike, the source gives them in different places.

What was measured:
MMP-2 [1] = target: T1, MMP-2 (Homo sapiens, UniProt P08253); experiment: MMP inhibition assay (MMP Inhibitor Profiling Kit, thiopeptide substrate), MMP-2; format: biochemical; details: catalytic domain, 37 °C, pH 7.5
T1 construct: the catalytic domains of the corresponding MMP were incubated in triplicate; purchased Enzo Life Science International, Inc
T1 sequence (P08253 110-446 limits assumed): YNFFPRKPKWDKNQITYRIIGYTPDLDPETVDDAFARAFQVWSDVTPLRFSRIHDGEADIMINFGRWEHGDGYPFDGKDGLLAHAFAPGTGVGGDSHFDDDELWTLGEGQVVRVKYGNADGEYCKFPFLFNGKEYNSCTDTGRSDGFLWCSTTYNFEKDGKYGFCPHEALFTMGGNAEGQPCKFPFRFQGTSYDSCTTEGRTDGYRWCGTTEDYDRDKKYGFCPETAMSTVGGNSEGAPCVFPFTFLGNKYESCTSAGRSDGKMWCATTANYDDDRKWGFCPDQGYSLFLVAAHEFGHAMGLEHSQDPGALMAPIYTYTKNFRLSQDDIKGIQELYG
Method: (§1) MMP activity measurements were performed using an MMP Inhibitor Profiling Kit purchased from Enzo Life Science International, Inc. (Farmingdale, NY, USA), and following the manufacturer’s protocol with slight modifications. Proteolytic activity was measured using a thiopeptide substrate (Ac-PLG-[2-mercapto-4-methylpentanoyl]-LG-OC2H5) where the MMP cleavage site peptide bond has been replaced by a thioester bond. Hydrolysis of this bond by MMPs produces a sulfhydryl group that reacts with DTNB to form 2-nitro-5-thiobenzoic acid, which was detected by its absorbance at 414 nm (microplate photometer 90 Thermo Scientific Multiscan FC).
Enzyme reactions were carried out at 37 °C in a 100 μL final volume of solutions, where the catalytic domains of the corresponding MMP were incubated in triplicate with at least seven concentrations of inhibitors. The assay buffer contained the following components: 50 mM HEPES, 10 mM CaCl2 95, 0.05% Brij-35, and 1 mM DTNB at pH 7.5. After addition of the substrate, the increase of absorbance was recorded in 1 min time intervals for 30 min. Data were plotted as OD versus time for each sample to obtain the reaction velocity (V) in OD per min. The percentage of residual activity for each compound was calculated using the following formula: % of remaining activity = (V in the presence of inhibitor/Vcontrol) × 100. An inhibitor, NNGH, was included as a prototypic control inhibitor. IC50 calculations in MMP-13 and MMP-2 for active compounds are shown in Supplementary Materials (Figure S9)
The concentration of the compound that provided 50% inhibition of enzymatic activity (IC50) was determined by using semi-logarithmic dose–response plots (Graph Pad Prism 5.0 for Windows, Graph Pad Software Inc., San Diego, CA, USA, 2007).

[2] = Thermodynamic solubility (shake flask method); format: physicochemical; details: phosphate buffer, aqueous buffer, thermodynamic from solid; PBS pH 7.4, shake flask, room temperature; read-out: Experimental Water Solubility LogS (converted)
Method: The samples were sonicated for 10 min and shaken overnight at 800 rpm (FB15013 TopMix, Fischer Scientific, Waltham, MA, USA) at room temperature. A first phase separation of supernatant and undissolved solid was performed by centrifugation at 5000 rpm for 20 min (Biofuge primo R). The supernatant was then transferred into Eppendorf tubes for a second centrifugation. An adequate dilution was made using the particle-free supernatant and the concentration quantified by LC-HRMS using a 4-point calibration curve (Agilent 1260 Infinity II).
PART A. Calibration curves of compounds for solubility
9e, 10a-e), 4-points calibration curves were made for each compound. Calibrations curves were obtained using four different concentrations of the corresponding compound (0.1 mg/mL, 0.01 mg/mL, 0.001 mg/mL and 0.0001 mg/mL). All samples were prepared in DMSO and measured in a LC-HRMS (Agilent 1260 Infinity II).
Figure S1. Calibration curves of all active compounds (solubility studies) (1, 2, 9a, 9e, 10a-e) […]

MMP-2 [3] = target: T1, MMP-2; parameters: method as in PMID 30629065; details: previous work; read-out: MMP-2 IC50; cited from earlier work
MMP-13 = target: T2, MMP-13 (Homo sapiens, UniProt P45452); experiment: MMP inhibition assay (MMP Inhibitor Profiling Kit, thiopeptide substrate), MMP-13; format: biochemical; details: catalytic domain, 37 °C, pH 7.5
T2 construct: the catalytic domains of the corresponding MMP were incubated in triplicate; purchased Enzo Life Science International, Inc
Method: as §1, with “Proteolytic activity was measured using a thiopeptide substrate (Ac-PLG-[2-mercapto-4-methylpentanoyl]-LG-OC2H5) where the MMP cleavage site peptide bond has been replaced by a thioester bond.” left out
The assay buffer contained the following components: 50 mM HEPES, 10 mM CaCl2 95, 0.05% Brij-35, and 1 mM DTNB at pH 7.5. After addition of the substrate, the increase of absorbance was recorded in 1 min time intervals for 30 min. Data were plotted as OD versus time for each sample to obtain the reaction velocity (V) in OD per min. The percentage of residual activity for each compound was calculated using the following formula: % of remaining activity = (V in the presence of inhibitor/Vcontrol) × 100. An inhibitor, NNGH, was included as a prototypic control inhibitor.

Compound	IC50 (MMP-2 [1])	solubility [2]	melting point	IC50 (MMP-13)	IC50 (MMP-2 [3])
O=C(NO)[C@@H](Cc1ccccc1)NS(=O)(=O)c1ccc(-n2cc(CCN3C(=O)c4ccccc4C3=O)nn2)cc1 [Compound 10a, (R)-2-((4-(4-(2-(1,3-dioxoisoindolin-2-yl)ethyl)-1H-1,2,3-triazol-1-yl)phenyl)sulfonamido)-N-hydroxy-3-phenylpropanamide]	3.1 ± 0.9 nM	2.69 µM (≈ 1.51 µg/mL)	177 °C (dec.)	–	–
O=C(NO)C1(S(=O)(=O)c2ccc(-n3cc(CCn4nc5c(Br)c(Br)c(Br)c(Br)c5n4)nn3)cc2)CCOCC1 [Compound 2]	–	2.4 µM (≈ 1.95 µg/mL)	–	–	100 nM
O=C(O)[C@@H](Cc1ccccc1)NS(=O)(=O)c1ccc(-n2cc(CCn3nc4ccccc4n3)nn2)cc1 [Compound 9b, (R)-2-(4-(4-(2-(2H-benzo[d][1–3]triazol-2-yl)ethyl)-1H-1,2,3-triazol-1-yl)phenylsulfonamido)-3-phenylpropanoic acid]	> 100 nM	–	246 °C (dec.)	> 100 nM	–
O=C(O)[C@H](Cc1ccccc1)NS(=O)(=O)c1ccc(-n2cc(CCn3nc4ccccc4n3)nn2)cc1 [Compound 9c, (S)-2-(4-(4-(2-(2H-benzo[d][1–3]triazol-2-yl)ethyl)-1H-1,2,3-triazol-1-yl)phenylsulfonamido)-3-phenylpropanoic acid]	> 100 nM	–	227 to 228 °C	> 100 nM	–

Further lines, with some results ahead:

IC50 (MMP-2 [1])	solubility [2]	melting point	IC50 (MMP-13)	Compound	IC50 (MMP-2 [3])
15 ± 5 nM	3.63 µM (≈ 2.61 µg/mL)	187 to 189 °C	46 ± 21 nM	O=C(NO)[C@@H](Cc1ccccc1)NS(=O)(=O)c1ccc(-n2cc(CCN3C(=O)c4cc(Br)c(Br)cc4C3=O)nn2)cc1 [Compound 10b, (R)-2-((4-(4-(2-(5,6-dibromo-1,3-dioxoisoindolin-2-yl)ethyl)-1H-1,2,3-triazol-1-yl)phenyl)sulfonamido)-N-hydroxy-3-phenylpropanamide]	–
2.9 ± 1.1 nM	8.32 µM (≈ 4.78 µg/mL)	143 to 145 °C	–	Cc1ccc2c(c1)C(=O)N(CCc1cn(-c3ccc(S(=O)(=O)N[C@H](Cc4ccccc4)C(=O)NO)cc3)nn1)C2=O [Compound 10e, (R)-N-hydroxy-2-((4-(4-(2-(5-methyl-1,3-dioxoisoindolin-2-yl)ethyl)-1H-1,2,3-triazol-1-yl)phenyl)sulfonamido)-3-phenylpropanamide]	–
